“Also recorded” adds a separate entry of the source. Like-named read-outs stand apart in the source and are kept apart here.
Assays:
[1] = tested on: reelin in Entorhinal Cortex (EC2); test: reelin in situ hybridization in entorhinal cortex after chronic levetiracetam; format: in vivo, rat; conditions: levetiracetam 10 mg/kg/day, osmotic minipumps, four weeks (28 days), aged-impaired rats
Method: (§1) Under isoflurane anesthesia, memory-impaired aged rats were implanted subcutaneously in the intrascapular region with osmotic mini-pumps (ALZET, Durect Corporation, Cupertino, Calif.) with levetiracetam (10 mg/kg/day) or saline vehicle for four weeks prior to perfusion. Young rats, which served as controls, received either saline vehicle in mini-pumps or no implantation.
At the end of the 4-week treatment period, rats were anesthetized with isoflurane and perfused transcardiacally with 0.1 M phosphate buffer saline, followed by 4% paraformaldehyde in phosphate buffer. Brains were removed and post-fixed in paraformaldehyde overnight. The brains were then moved into 4% paraformaldehyde in phosphate buffer containing 16% sucrose. […]
Probe templates were synthesized as described in Haberman et al. (2008). […] The final probe was resuspended in RNase-free water and the specific activity was determined by scintillation counter.
In situ hybridization was carried out as described by Haberman et al., (2008). […] Slides were dried overnight, exposed to a phosphoimager screen, and quantified by using ImageQuant (GE Healthcare). Digital images were acquired of entorhinal cortical sections from the same levels for all animals and the subregion of interest was outlined and quantified. […]

[2] = cited from earlier work
somatostatin in DG hilus = test: anti-SOM immunohistochemistry, hilar interneuron counts after chronic levetiracetam; format: in vivo, rat; conditions: levetiracetam 10 mg/kg/day, osmotic minipumps, four weeks, aged-impaired rats
Method: as §1
At the end of the 4-week treatment period, rats were anesthetized with isoflurane and perfused transcardiacally with 0.1 M phosphate buffer saline, followed by 4% paraformaldehyde in phosphate buffer. Brains were removed and post-fixed in paraformaldehyde overnight. […]
Tissue was labeled with anti-SOM antiserum (Santa Cruz Biotechnology; cat. no. SC7819-P) using an established immunoperoxidase protocol and tissue sections were processed concurrently to minimize inter-replication variability (Haberman et al., 2009). […] The secondary antibody was detected with avidin-biotin complex (ABC Elite; Vector Laboratories Inc., Burlingame, Calif.) and the avidin-biotin complex was visualized with nickel-enhanced diaminobenzadine (Vector Laboratories Inc., Burlingame, Calif.). […]
Interneuron quantification was performed using a Zeiss Axioplan 2 microscope equipped with a motorized stage. […] Neuron counts were analyzed as the total number of hilar interneurons per hippocampal section for each rat.

[3] = levetiracetam blood plasma levels in aMCI subjects; format: in vivo; conditions: human, upon completion of treatment, read-out: mean levetiracetam blood plasma level
From the text: At the end of the first drug/placebo period 2 weeks after the Baseline Visit, the medical, neurological and psychiatric evaluations and cognitive testing are repeated. The subject is also clinically evaluated for suicidal ideation. Blood is drawn again to repeat the standard tests and to determine whether there are any changes related to drug treatment; the subject's blood levetiracetam level is also obtained. All medication dispensed at the Baseline Visit (drug or placebo) is collected and subject compliance with the medication regimen is assessed. The first fMRI session (with cognitive tests) is conducted on the same day, either immediately before or immediately after the clinical assessment. Subjects discontinue first period treatment at this visit.
At approximately 2 weeks after the Washout Visit (i.e., 2 weeks after starting the second treatment period), the medical, neurological and psychiatric evaluations and the cognitive testing are repeated. The subject is clinically evaluated for suicidal ideation. Blood is drawn again to repeat the standard tests and to determine whether there were any changes related to drug treatment; the subject's blood levetiracetam level is also obtained. All medication dispensed at the Washout Visit is collected and subject compliance with the medication regimen is assessed. The second fMRI session (with cognitive tests) is repeated on the same day, either immediately before or immediately after the clinical assessment.
Human – in the human studies described in Examples 3 and 4, a subject's levetiracetam blood plasma level was assessed at each visit. The subject's blood was drawn by the Johns Hopkins Phlebotomy Service and analysis of levetiracetam blood plasma levels was conducted either by the Johns Hopkins Core laboratory or by MedTox Laboratories in St. Paul, Minn. for the 62.5 mg BID cohort, the 125 mg BID cohort and the 250 mg BID cohort.

## CC[C@@H](C(N)=O)N1CCCC1=O [levetiracetam, (2S)-2-(2-oxopyrrolidin-1-yl)butanamide]
[1]
  levels of reelin in Entorhinal Cortex (EC2) (reelin mRNA expression): significantly increased; also recorded: restores
[2]; expected in elderly due to decreased renal function
  Plasma half-life: 9 to 10 h
[2]; following oral administration
  time of peak plasma concentrations: about 1 hour
[2]; multiple twice-daily dosing
  time to steady state: 2 days
[2]; oral administration
  Plasma half-life: approximately 7±1 hour
  absorption after oral administration: rapidly and almost completely absorbed
  effect of food on bioavailability: not affected by food
Somatostatin in DG hilus
  levels of somatostatin in DG hilus (SOM-immunoreactive hilar neurons): restores
[3]; 125 mg BID cohort
  concentration at 2 weeks: 4400 ng/mL
[3]; oral, 62.5 mg BID cohort
  concentration at 2 weeks: 2880 ng/mL
[3]; oral, 250 mg BID cohort
  concentration at 2 weeks: 7900 ng/mL
